Assay: Tofacitinib stability in PEG-based ointment formulations after storage at 40° C.
Format: physicochemical
Text: Topical formulations contain 3-((3R,4R)-4-methyl-3-[methyl-(7H-pyrrolo[2,3-d]pyrimidin-4-yl)amino]-piperidin-1-yl)-3-oxopropionitrile in therapeutically effective amounts that can be given in daily or twice daily doses to patients in need. These amounts range from about 0.1% to about 5.0% (w/v), more preferably, from about 0.1% to about 3.0%, more preferably still, from about 0.5% to about 2.3%, and, most preferably, about 2.0% (w/v). Among other excipients which enhance the stability of these formulations include aldehyde scavengers, such as glycerine and propylene glycol, and antioxidants, such as butyl hydroxyanisole (BHA), butyl hydroxytoluene (BHT), propyl gallate, ascorbic acid (Vitamin C), polyphenols, tocopherols (Vitamin E), and their derivatives. Preferably, PEG-based ointment formulations containing at least 30% polyethylene glycol, tofacifinib and one or more penetration enhancers and additional pharmaceutically acceptable excipients forming a stable formulation such that the level of total degradants is no more than 7% when the product is stored at 40° C. for 4 weeks. More preferably, addition of aldehyde scavengers and antioxidants into formulations Ointment 1 (A) and Ointment 2 (C) stabilized the polyethylene glycol containing ointment formulations such that the level of total degradants is no more than 5% when the product is stored at 40° C. for 4 weeks.

Stability of tofacitinib in the presence of polyethylene glycol (PEG): poor stability
Compound: C[C@@H]1CCN(C(=O)CC#N)C[C@@H]1N(C)c1ncnc2[nH]ccc12 [tofacitinib, 3-((3R,4R)-4-Methyl-3-[methyl-(7H-pyrrolo[2,3-d]pyrimidin-4-yl)-amino]-piperidin-1-yl)-3-oxopropionitrile]
